From patent publication US20120077673A1, “Fungicidal Compositions and Methods of Use” (priority 2010, published 2012)

Columns and labels:
Assay type in all cases: in vivo
Pythium [1] = experiment: Cucumber field trial, Pythium-infected seeds, seed treatment, control or Pythium-inoculated soil (Example 3); design: Density: unit not given here
Excerpt: The seeds were planted in a field, either in soil that had been inoculated with Pythium (Soil Inoc. with Pythium), or in soil that had not been inoculated with Pythium (Ctrl.), then allowed to grow. Concentrations and compositions of triadimenol, metalaxyl, and saponin are the same as given in Example 1. For cucumber, the industry standard dosage of metalaxyl is 15.5 grams of active ingredient per 100 kilograms of seed (15.5 GA/100 Kg). […] The data of TABLE 3 are shown graphically in FIG. 3. The relative densities for the data of TABLE 3 and FIG. 3 were calculated with reference to the 31 GA/100 Kg metalaxyl category. As shown by TABLE 3 and FIG. 3, inoculation of the soil with Pythium was correlated with a general decrease in cucumber seedling count, density, and relative density (compare Ctrl. versus Inoc.).

Pythium [2] = experiment: Cotton field trial, Pythium-infected seeds, seed treatment, control or Pythium-inoculated soil (Example 2)
Excerpt: The seeds were planted in a field, either in soil that had been inoculated with Pythium (Soil Inoc. with Pythium), or in soil that had not been inoculated with Pythium (Ctrl.), then allowed to grow. Concentrations and compositions of triadimenol, metalaxyl, and saponin are the same as given in Example 1. For cotton, the industry standard dosage of metalaxyl is 15.5 grams of active ingredient per 100 kilograms of seed (15.5 GA/100 Kg). […] The data of TABLE 2 are shown graphically in FIG. 2. The relative densities for the data of TABLE 2 and FIG. 2 were calculated with reference to the 15.5 GA/100 Kg metalaxyl category. As shown by TABLE 2 and FIG. 2, inoculation of the soil with Pythium was correlated with a general decrease in cotton seedling count and density (compare Ctrl. versus Inoc.).

Pythium ultimum = experiment: Cotton varieties greenhouse trial, metalaxyl-resistant Pythium ultimum (Example 5)
Excerpt: Two different varieties of cotton seedlings (Variety A, and Variety B) that were infected with Pythium ultimum were exposed to various rates of metalaxyl, saponins, or metalaxyl+Saponin, and then allowed to grow in a greenhouse to determine whether the effects observed in the field could be reproduced in a greenhouse setting. This particular strain of Pythium ultimum was shown previously to have a mid-degree of resistance to seed treatments containing metalaxyl and/or L-metalaxyl. […] The stand counts from Variety B show a similar trend with the 1 GA/100 Kg rate of metalaxyl (see FIG. 5B).

Pythium [3] = experiment: Corn field trial, Pythium-infected seeds, seed treatment, soil not inoculated (Example 1); design: Density: unit not given here; conditions: for Vigor: subjective score, lower more favorable
Excerpt: Unlike other experiments disclosed herein, the soil for the experiment of EXAMPLE 1 was not inoculated with Pythium. Uninfected untreated, and Pythium-infected untreated seeds served as controls. Triadimenol, 15% w/v, is a systemic broad-spectrum fungicide used for cereal seed treatment, but has no activity against Pythium spp. Metalaxyl, 28.35% w/v, provides systemic protection for the seed, roots, and emerging plants against Pythium, systemic downy mildew, and Phytophthora. For corn, the industry standard dosage of metalaxyl is 2 grams of active ingredient per 100 kilograms of seed (2 GA/100 Kg). Saponin, 49.65% v/v extract of Chenopodium quinoa saponins, contained approximately equimolar amounts of triterpene bidesmosidic glycosides of oleanolic acid, hederagenin, and phytolaccagenic acid. […] In TABLE 1, “Vigor” represents a subjective measure of plant health and is based on uniformity, consistent plant mass, and consistent plant spacing, with lower scores being more favorable than higher scores. The data of TABLE 1 are shown graphically in FIGS. 1A and 1B. As shown by TABLE 1 and FIGS. 1A and 1B, the count and the density increased—over time—for all treatment conditions. The relative density, however, decreased over time for the […] and metalaxyl (2 GA/100 kg) categories. The relative density remained the same for the untreated/uninfected category because it provided the reference point (i.e., the relative densities were calculated with reference to the untreated/uninfected category).

[4] = Metalaxyl 15.5 GA/100 Kg, 18 DAA, Ctrl. soil
[5] = Metalaxyl 15.5 GA/100 Kg, 18 DAA, Soil Inoc. with Pythium
[6] = Metalaxyl 15.5 GA/100 Kg, 33 DAA, Ctrl. soil
[7] = Metalaxyl 31 GA/100 Kg, 18 DAA, Ctrl. soil
[8] = Metalaxyl 31 GA/100 Kg, 18 DAA, Soil Inoc. with Pythium
[9] = Metalaxyl 31 GA/100 Kg, 33 DAA, Ctrl. soil
[10] = Metalaxyl 31 GA/100 Kg, 33 DAA, Soil Inoc. with Pythium
[11] = Metalaxyl 15.5 GA/100 Kg, 34 DAA, Ctrl. soil
[12] = Metalaxyl 15.5 GA/100 Kg, 34 DAA, Soil Inoc. with Pythium
[13] = Metalaxyl 15.5 GA/100 Kg, 46 DAA, Ctrl. soil
[14] = Metalaxyl 15.5 GA/100 Kg, 46 DAA, Soil Inoc. with Pythium
[15] = Metalaxyl 31 GA/100 Kg, 34 DAA, Ctrl. soil
[16] = Metalaxyl 31 GA/100 Kg, 34 DAA, Soil Inoc. with Pythium
[17] = Metalaxyl 31 GA/100 Kg, 46 DAA, Ctrl. soil
[18] = Metalaxyl 31 GA/100 Kg, 46 DAA, Soil Inoc. with Pythium
[19] = Metalaxyl 7.5 GA/100 Kg, 30 DAA
[20] = Metalaxyl 7.5 GA/100 Kg, 46 DAA

COCC(=O)N(c1c(C)cccc1C)C(C)C(=O)OC (centres unmarked) [Metalaxyl]
Count (Pythium [1]; [4]): 42.5
Density (Pythium [1]; [4]): 85
Relative Density (Pythium [1]; [4]): 121.4
Count (Pythium [1]; [5]): 26
Density (Pythium [1]; [5]): 52
Relative Density (Pythium [1]; [5]): 89.7
Count (Pythium [1]; [6]): 41.8
Density (Pythium [1]; [6]): 83.5
Relative Density (Pythium [1]; [6]): 122.8
Relative Density (Pythium [1]; Metalaxyl 31 GA/100 Kg (reference), 18 DAA, Ctrl. soil): 100
Relative Density (Pythium [1]; Metalaxyl 31 GA/100 Kg (reference), 18 DAA, Soil Inoc. with Pythium): 100
Relative Density (Pythium [1]; Metalaxyl 31 GA/100 Kg (reference), 33 DAA, Ctrl. soil): 100
Count (Pythium [1]; [7]): 35
Density (Pythium [1]; [7]): 70
Count (Pythium [1]; [8]): 29
Density (Pythium [1]; [8]): 58
Count (Pythium [1]; [9]): 34
Density (Pythium [1]; [9]): 68
Count (Pythium [1]; [10]): 8.3
Density (Pythium [1]; [10]): 16.5
Relative Density (Pythium [1]; [10]): 31.4
Relative Density (Pythium [2]; Metalaxyl 15.5 GA/100 Kg (reference), 34 DAA, Ctrl. soil): 100
Relative Density (Pythium [2]; Metalaxyl 15.5 GA/100 Kg (reference), 34 DAA, Soil Inoc. with Pythium): 100
Relative Density (Pythium [2]; Metalaxyl 15.5 GA/100 Kg (reference), 46 DAA, Ctrl. soil): 100
Relative Density (Pythium [2]; Metalaxyl 15.5 GA/100 Kg (reference), 46 DAA, Soil Inoc. with Pythium): 100
Count (Pythium [2]; [11]): 37
Density (Pythium [2]; [11]): 74
Count (Pythium [2]; [12]): 25
Density (Pythium [2]; [12]): 50
Count (Pythium [2]; [13]): 37.5
Density (Pythium [2]; [13]): 75
Count (Pythium [2]; [14]): 24.5
Density (Pythium [2]; [14]): 49
Count (Pythium [2]; [15]): 38
Density (Pythium [2]; [15]): 76
Relative Density (Pythium [2]; [15]): 102.7
Count (Pythium [2]; [16]): 26.5
Density (Pythium [2]; [16]): 53
Relative Density (Pythium [2]; [16]): 106
Count (Pythium [2]; [17]): 37
Density (Pythium [2]; [17]): 74
Relative Density (Pythium [2]; [17]): 98.7
Count (Pythium [2]; [18]): 24.5
Density (Pythium [2]; [18]): 49
Relative Density (Pythium [2]; [18]): 100
Count, Variety A (Pythium ultimum; Metalaxyl 1 GA/100 Kg, Day 6): 76
Count, Variety B (Pythium ultimum; Metalaxyl 1 GA/100 Kg, Day 6): 77
Count, Variety A (Pythium ultimum; Metalaxyl 1 GA/100 Kg, Day 14): 57
Count, Variety B (Pythium ultimum; Metalaxyl 1 GA/100 Kg, Day 14): 26
Count, Variety A (Pythium ultimum; Metalaxyl 1 GA/100 Kg, Day 19): 24
Count, Variety B (Pythium ultimum; Metalaxyl 1 GA/100 Kg, Day 19): 5
Count, Variety A (Pythium ultimum; Metalaxyl 5 GA/100 Kg, Day 6): 70
Count, Variety B (Pythium ultimum; Metalaxyl 5 GA/100 Kg, Day 6): 94
Count, Variety A (Pythium ultimum; Metalaxyl 5 GA/100 Kg, Day 14): 73
Count, Variety B (Pythium ultimum; Metalaxyl 5 GA/100 Kg, Day 14): 84
Count, Variety A (Pythium ultimum; Metalaxyl 5 GA/100 Kg, Day 19): 49
Count, Variety B (Pythium ultimum; Metalaxyl 5 GA/100 Kg, Day 19): 45
Count, Variety A (Pythium ultimum; Metalaxyl 10 GA/100 Kg, Day 6): 73.75
Count, Variety B (Pythium ultimum; Metalaxyl 10 GA/100 Kg, Day 6): 83
Count, Variety A (Pythium ultimum; Metalaxyl 10 GA/100 Kg, Day 14): 77.5
Count, Variety B (Pythium ultimum; Metalaxyl 10 GA/100 Kg, Day 14): 85
Count, Variety A (Pythium ultimum; Metalaxyl 10 GA/100 Kg, Day 19): 72.5
Count, Variety B (Pythium ultimum; Metalaxyl 10 GA/100 Kg, Day 19): 68
Count, Variety A (Pythium ultimum; Metalaxyl 15 GA/100 Kg, Day 6): 60
Count, Variety B (Pythium ultimum; Metalaxyl 15 GA/100 Kg, Day 6): 83
Count, Variety A (Pythium ultimum; Metalaxyl 15 GA/100 Kg, Day 14): 81.25
Count, Variety B (Pythium ultimum; Metalaxyl 15 GA/100 Kg, Day 14): 80
Count, Variety A (Pythium ultimum; Metalaxyl 15 GA/100 Kg, Day 19): 36.25
Count, Variety B (Pythium ultimum; Metalaxyl 15 GA/100 Kg, Day 19): 62
Count (Pythium [3]; Metalaxyl 2 GA/100 Kg, 30 DAA): 37
Density (Pythium [3]; Metalaxyl 2 GA/100 Kg, 30 DAA): 46.6
Relative Density (Pythium [3]; Metalaxyl 2 GA/100 Kg, 30 DAA): 124.2
Count (Pythium [3]; Metalaxyl 2 GA/100 Kg, 46 DAA): 73
Density (Pythium [3]; Metalaxyl 2 GA/100 Kg, 46 DAA): 90.9
Relative Density (Pythium [3]; Metalaxyl 2 GA/100 Kg, 46 DAA): 117.8
Vigor (Pythium [3]; Metalaxyl 2 GA/100 Kg, 46 DAA): 3.75
Count (Pythium [3]; [19]): 34
Density (Pythium [3]; [19]): 42.8
Relative Density (Pythium [3]; [19]): 114.2
Count (Pythium [3]; [20]): 73
Density (Pythium [3]; [20]): 91.6
Relative Density (Pythium [3]; [20]): 118.6
Vigor (Pythium [3]; [20]): 3.5
